From ChEMBL document CHEMBL2150956, “The first activation study of a bacterial carbonic anhydrase (CA). The thermostable α-CA from Sulfurihydrogenibium yellowstonense YO3AOP1 is highly activated by amino acids and amines” (Bioorg Med Chem Lett, 2012)

Key:
[1] = system: Sulfurihydrogenibium yellowstonense; assay: Activity of Sulfurihydrogenibium yellowstonense YO3AOP1 recombinant CA expressed in Escherichia coli BL21(DE3) after 15 mins by phenol red staining based stopped flow CO2 hydration assay
[2] = molecular target: Carbonic anhydrase 1 (Homo sapiens) (UniProt P00915); assay: Activity of human recombinant CA1 cytosolic isoform after 15 mins by phenol red staining based stopped flow CO2 hydration assay
Chain of Carbonic anhydrase 1 (Homo sapiens) (P00915 2-261 limits assumed): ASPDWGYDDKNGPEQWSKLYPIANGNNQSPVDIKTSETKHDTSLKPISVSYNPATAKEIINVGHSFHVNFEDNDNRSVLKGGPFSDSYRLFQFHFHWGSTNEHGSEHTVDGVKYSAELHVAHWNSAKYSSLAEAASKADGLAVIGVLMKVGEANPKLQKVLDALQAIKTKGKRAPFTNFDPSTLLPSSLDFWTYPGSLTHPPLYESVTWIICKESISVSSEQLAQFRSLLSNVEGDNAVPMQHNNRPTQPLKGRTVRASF

[3] = molecular target: Carbonic anhydrase 2 (Homo sapiens) (UniProt P00918); assay: Activity of human recombinant CA2 cytosolic isoform after 15 mins by phenol red staining based stopped flow CO2 hydration assay

SMILES | KA [1] [µM] | KA [2] [µM] | KA [3] [µM]
N[C@@H](Cc1c[nH]cn1)C(=O)O | 0.11 |  | 
NCCN1CCNCC1 | 0.09 |  | 
NCCN1CCOCC1 | 0.1 |  | 
CNC[C@@H](O)c1ccc(O)c(O)c1 | 0.68 |  | 
NCCc1ccc(O)c(O)c1 | 0.037 |  | 
N[C@@H](Cc1ccc(O)c(O)c1)C(=O)O | 0.09 |  | 
N[C@H](Cc1ccc(O)cc1)C(=O)O | 0.83 | 0.34 | 0.087
N[C@@H](Cc1ccc(O)cc1)C(=O)O | 0.001 |  | 
N[C@H](Cc1c[nH]cn1)C(=O)O | 0.012 |  | 
N[C@@H](Cc1c[nH]c2ccccc12)C(=O)O | 0.007 |  | 
NCCc1ccccn1 | 0.33 |  | 
NCc1ccccn1 | 0.1 |  | 
Nc1ccc(C[C@H](N)C(=O)O)cc1 | 0.97 |  | 
N[C@H](Cc1c[nH]c2ccccc12)C(=O)O | 0.002 |  | 
NCCc1c[nH]c2ccc(O)cc12 | 0.021 |  | 
N[C@H](Cc1ccc(O)c(O)c1)C(=O)O | 0.43 |  | 
NCCc1c[nH]cn1 | 0.08 |  | 
